Reference: EP1984353B1, “AURORA KINASE MODULATORS AND METHOD OF USE” (Amgen, Inc, priority 2006, dated 2007)
Like-named read-outs stand apart in the source and are kept apart here.

How the values were obtained:
AuroraA-TPX2 = target: T1, AuroraA-TPX2 (Homo sapiens, UniProt O14965); assay: AuroraA-TPX2 Homogeneous Time Resolved Fluorescent (HTRF) kinase assay; format: biochemical; conditions: average, read-out: AurA/TP X2_ IC50_IP (Avg)
T1 construct: 20 µL of AuroraA-TPX2 KD GST; GST
T1 sequence (O14965 133-383 limits assumed): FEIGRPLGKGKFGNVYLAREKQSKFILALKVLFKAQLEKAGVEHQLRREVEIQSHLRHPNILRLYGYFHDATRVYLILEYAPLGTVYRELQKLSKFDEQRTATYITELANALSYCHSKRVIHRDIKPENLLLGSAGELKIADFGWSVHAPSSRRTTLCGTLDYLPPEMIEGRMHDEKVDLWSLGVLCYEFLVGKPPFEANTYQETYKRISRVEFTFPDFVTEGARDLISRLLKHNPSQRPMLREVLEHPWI
T1 sequence (Q9ULW0 1-43 partner limits assumed): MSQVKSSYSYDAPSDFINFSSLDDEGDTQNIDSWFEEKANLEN
In short: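 Aurora-A/TPX2 phosphorylates biotinylated PLK peptide (about 1 µM) with ATP for about 120 min in 60 mM HEPES pH 7.5, 10 mM MgCl2, 2 mM DTT. EDTA quench, overnight equilibration with Eu-anti-phosphoPLK antibody and SA-APC; HTRF read at 615/655 nm after 320 nm excitation.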

AuroraB = target: T2, AuroraB (Homo sapiens, UniProt Q96GD4); assay: AuroraB Homogeneous Time Resolved Fluorescent (HTRF) kinase assay; format: biochemical; conditions: average, read-out: AurB_ _IC50_IP (Avg)
T2 construct: 20 µL of AuroraB FL His; His
T2 sequence (Q96GD4 whole entry): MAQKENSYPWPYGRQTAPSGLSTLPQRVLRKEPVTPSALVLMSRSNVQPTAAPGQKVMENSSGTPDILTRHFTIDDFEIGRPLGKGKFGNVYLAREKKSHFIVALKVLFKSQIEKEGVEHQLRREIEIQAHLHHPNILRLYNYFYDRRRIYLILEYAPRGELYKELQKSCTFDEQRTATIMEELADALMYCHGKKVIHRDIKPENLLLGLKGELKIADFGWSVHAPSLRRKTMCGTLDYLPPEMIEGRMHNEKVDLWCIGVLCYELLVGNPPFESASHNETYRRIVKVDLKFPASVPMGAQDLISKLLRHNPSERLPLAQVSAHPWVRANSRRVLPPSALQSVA
In short: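 Full-length His-tagged AuroraB (400 pM) phosphorylates 0.1 µM biotinylated Histone H3 with 23 µM ATP (Km(app)) in HEPES pH 7.5 with Mg/Mn, about 90 min. EDTA-quenched; Eu-anti-phosphoHistoneH3 and SA-APC HTRF, 655/615 nm ratio as phosphorylation.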

[1] = given as numbers, unit inferred

Compound	IC50 (AuroraA-TPX2; given as class symbols)	IC50 (AuroraB; given as class symbols)	IC50 (AuroraA-TPX2; [1])	IC50 (AuroraB; [1])
Nc1nccc(-c2cccnc2Oc2ccc(Nc3nnc(-c4ccccc4OC(F)(F)F)c4ccccc34)cc2)n1 [compound 382, N-(4-((3-(2-amino-4-pyrimidinyl)-2-pyridinyl)oxy)phenyl)-4-(2-((trifluoromethyl)oxy)phenyl)-1-phthalazinamine]	100 to 500 nM	≤ 100 nM		
Nc1nccc(-c2cccnc2Oc2ccc(Nc3nnc(-c4ccccc4CO)c4ccccc34)cn2)n1 [compound 385, (2-(4-((6-((3-(2-amino-4-pyrimidinyl)-2-pyridinyl)oxy)-3-pyridinyl)amino)-1-phthalazinyl)phenyl)methanol]	100 to 500 nM	≤ 100 nM		
CN(C)CCCOc1cccc(-c2nnc(Nc3ccc(Oc4ncccc4-c4ccnc(N)n4)nc3)c3ccccc23)c1 [compound 388, N-(6-((3-(2-amino-4-pyrimidinyl)-2-pyridinyl)oxy)-3-pyridinyl)4-(3-((3-(dimethylamino)propyl)oxy)phenyl)-1-phthalazinamine]	100 to 500 nM	≤ 100 nM		
CN1CCN(CCCNc2nccc(-c3cccnc3Oc3ccc(Nc4nnc(-c5ccccc5)c5ccccc45)cn3)n2)CC1 [compound 389, N-(6-((3-(2-((3-(4-methyl-1-piperazinyl)propyl)amino)-4-pyrimidinyl)-2-pyridinyl)oxy)-3-pyridinyl)-4-phenyl-1-phthalazinamine]	≤ 100 nM	≤ 100 nM		
c1ccc(-c2nnc(Nc3ccc(Oc4ncccc4-c4ccnc(NCCCN5CCNCC5)n4)nc3)c3ccccc23)cc1 [compound 390, 4-phenyl-N-(6-((3-(2-((3-(1-piperazinyl)propyl)amino)-4-pyrimidinyl)-2-pyridinyl)oxy)-3-pyridinyl)-1-phthalazinamine]	≤ 100 nM	≤ 100 nM		
Nc1nccc(-c2cccnc2Oc2ccc(Nc3nnc(-c4cccc(OP(=O)(O)O)c4)c4ccccc34)cn2)n1 [compound 392, 3-(4-((6-((3-(2-amino-4-pyrimidinyl)-2-pyridinyl)oxy)-3-pyridinyl)amino)-1-phthalazinyl)phenyl dihydrogen phosphate]	500 to 2500 nM	500 to 2500 nM		
Nc1nccc(-c2cccnc2Oc2ccc(Nc3nnc(N4CCNCC4)c4ccccc34)cc2)n1 [compound 393, N-(4-((3-(2-amino-4-pyrimidinyl)-2-pyridinyl)oxy)phenyl)-4-(1-piperazinyl)-1-phthalazinamine]	500 to 2500 nM	100 to 500 nM		
Cc1ccc(-c2nnc(Nc3ccc(Oc4ncccc4-c4ccnc(N)n4)cc3)c3ccccc23)nc1 [compound 396, N-(4-((3-(2-amino-4-pyrimidinyl)-2-pyridinyl)oxy)phenyl)-4-(5-methyl-2-pyridinyl)-1-phthalazinamine]			4.7 nM	0.8 nM
Nc1nccc(-c2cccnc2Oc2ccc(Nc3nnc(N4CCN5CCCC5C4)c4ccccc34)cn2)n1 (stereo not shown) [compound 397, N-(6-((3-(2-amino-4-pyrimidinyl)-2-pyridinyl)oxy)-3-pyridinyl)-4-(hexahydropyrrolo[1,2-a]pyrazin-2(1H)-yl)-1-phthalazinamine]	≤ 100 nM	≤ 100 nM		
C[C@@H]1CN(c2nnc(Nc3ccc(Oc4ncccc4-c4ccnc(N)n4)cc3)c3ccccc23)CCN1 [compound 399, N-(4-((3-(2-amino-4-pyrimidinyl)-2-pyridinyl)oxy)phenyl)-4-((3R)-3-methyl-1-piperazinyl)-1-phthalazinamine]	500 to 2500 nM	100 to 500 nM		
Fc1cnc(NCCCN2CCNCC2)nc1-c1cccnc1Oc1ccc(Nc2nnc(-c3ccccc3)c3ccccc23)cc1 [compound 400, N-(4-((3-(5-fluoro-2-((3-(1-piperazinyl)propyl)amino)-4-pyrimidinyl)-2-pyridinyl)oxy)phenyl)-4-phenyl-1-phthalazinamine]	100 to 500 nM	≤ 100 nM		
Fc1cnc(NCCCN2CCCCC2)nc1-c1cccnc1Oc1ccc(Nc2nnc(-c3ccccc3)c3ccccc23)cc1 [compound 403, N-(4-((3-(5-fluoro-2-((3-(1-piperidinyl)propyl)amino)-4-pyrimidinyl)-2-pyridinyl)oxy)phenyl)-4-phenyl-1-phthalazinamine]	≤ 100 nM	≤ 100 nM		
Nc1nccc(-c2cccnc2Oc2ccc(Nc3nnc(N4CCN5CCCCC5C4)c4ccccc34)cc2)n1 (stereo not shown) [compound 406, N-(4-((3-(2-amino-4-pyrimidinyl)-2-pyridinyl)oxy)phenyl)-4-(octahydro-2H-pyrido[1,2-a]pyrazin-2-yl)-1-phthalazinamine]	≤ 100 nM	≤ 100 nM		

Continued, values first:

IC50 (AuroraA-TPX2; given as class symbols)	IC50 (AuroraB; given as class symbols)	IC50 (AuroraA-TPX2; [1])	IC50 (AuroraB; [1])	Compound
≤ 100 nM	≤ 100 nM			COc1ccc(F)cc1-c1nnc(Nc2ccc(Oc3ncccc3-c3ccnc(N)n3)cc2)c2ccccc12 [compound 380, N-(4-((3-(2-amino-4-pyrimidinyl)-2-pyridinyl)oxy)phenyl)-4-(5-fluoro-2-(methyloxy)phenyl)-1-phthalazinamine]
100 to 500 nM	≤ 100 nM			COc1ccc(F)cc1-c1nnc(Nc2ccc(Oc3ncccc3-c3ccnc(N)n3)nc2)c2ccccc12 [compound 381, N-(6-((3-(2-amino-4-pyrimidinyl)-2-pyridinyl)oxy)-3-pyridinyl)-4-(5-fluoro-2-(methyloxy)phenyl)-1-phthalazinamine]
500 to 2500 nM	≤ 100 nM			Nc1nccc(-c2cccnc2Oc2ccc(Nc3nnc(-c4ccccc4OC(F)(F)F)c4ccccc34)cn2)n1 [compound 383, N-(6-((3-(2-amino-4-pyrimidinyl)-2-pyridinyl)oxy)-3-pyridinyl)-4-(2-((trifluoromethyl)oxy)phenyl)-1-phthalazinamine]
≤ 100 nM	≤ 100 nM			Nc1nccc(-c2cccnc2Oc2ccc(Nc3nnc(-c4ccccc4CO)c4ccccc34)cc2)n1 [compound 384, (2-(4-((4-((3-(2-amino-4-pyrimidinyl)-2-pyridinyl)oxy)phenyl)amino)-1-phthalazinyl)phenyl)methanol]
≤ 100 nM	≤ 100 nM			Nc1nccc(-c2cccnc2Oc2ccc(Nc3nnc(-c4cc(F)ccc4O)c4ccccc34)cc2)n1 [compound 386, 2-(4-((4-((3-(2-amino-4-pyrimidinyl)-2-pyridinyl)oxy)phenyl)amino)-1-phthalazinyl)-4-fluorophenol]
≤ 100 nM	≤ 100 nM			Nc1nccc(-c2cccnc2Oc2ccc(Nc3nnc(-c4cc(F)ccc4O)c4ccccc34)cn2)n1 [compound 387, 2-(4-((6-((3-(2-amino-4-pyrimidinyl)-2-pyridinyl)oxy)-3-pyridinyl)amino)-1-phthalazinyl)-4-fluorophenol]
		1600 nM	641 nM	Nc1nccc(-c2cccnc2Oc2ccc(Nc3nnc(-c4ccccc4OP(=O)(O)O)c4ccccc34)cn2)n1 [compound 391, 2-(4-((6-((3-(2-amino-4-pyrimidinyl)-2-pyridinyl)oxy)-3-pyridinyl)amino)-1-phthalazinyl)phenyl dihydrogen phosphate]
≤ 100 nM	≤ 100 nM			Nc1nccc(-c2cccnc2Oc2ccc(Nc3nnc(N4CCN5CCCC5C4)c4ccccc34)cc2)n1 (stereo not shown) [compound 394, N-(4-((3-(2-amino-4-pyrimidinyl)-2-pyridinyl)oxy)phenyl)-4-(hexahydropyrrolo[1,2-a]pyrazin-2(1H)-yl)-1-phthalazinamine]
≤ 100 nM	≤ 100 nM			CC1CN(c2nnc(Nc3ccc(Oc4ncccc4-c4ccnc(N)n4)cc3)c3ccccc23)CCN1C (stereo not shown) [compound 395, N-(4-((3-(2-amino-4-pyrimidinyl)-2-pyridinyl)oxy)phenyl)-4-(3,4-dimethyl-1-piperazinyl)-1-phthalazinamine]
≤ 100 nM	≤ 100 nM			Nc1nccc(-c2cccnc2Oc2ccc(Nc3nnc(N4CCN5CCC[C@H]5C4)c4ccccc34)cc2)n1 [compound 401, N-(4-((3-(2-amino-4-pyrimidinyl)-2-pyridinyl)oxy)phenyl)-4-((8aS)-hexahydropyrrolo[1,2-a]pyrazin-2(1H)-yl)-1-phthalazinamine]
≤ 100 nM	≤ 100 nM			Nc1nccc(-c2cccnc2Oc2ccc(Nc3nnc(N4CCN5CCC[C@H]5C4)c4ccccc34)cn2)n1 [compound 402, N-(6-((3-(2-amino-4-pyrimidinyl)-2-pyridinyl)oxy)-3-pyridinyl)-4-((8aS)-hexahydropyrrolo[1,2-a]pyrazin-2(1H)-yl)-1-phthalazinamine]
100 to 500 nM	≤ 100 nM			Cc1ccnc(-c2nnc(Nc3ccc(Oc4ncccc4-c4ccnc(N)n4)cc3)c3ccccc23)c1 [compound 404, N-(4-((3-(2-amino-4-pyrimidinyl)-2-pyridinyl)oxy)phenyl)-4-(4-methyl-2-pyridinyl)-1-phthalazinamine]
100 to 500 nM	≤ 100 nM			Cc1ccnc(-c2nnc(Nc3ccc(Oc4ncccc4-c4ccnc(N)n4)nc3)c3ccccc23)c1 [compound 405, N-(6-((3-(2-amino-4-pyrimidinyl)-2-pyridinyl)oxy)-3-pyridinyl)-4-(4-methyl-2-pyridinyl)-1-phthalazinamine]
